In the supplement of paper PMC10883282:
± gives the standard deviation of the averaged measurements.

Assays:
[1] = system: A204; test: relative viability vs DMSO control (72 h) (fraction); higher = more viable cells
Procedure, shortened: (§1)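 Serially diluted compound, 2.5 µl from source plates spanning 10 mM to 0.0002 mM, was added 24 h after sarcoma cell lines were seeded in 384-well plates at densities targeting 80–90% confluence. Plates then sat 72 h at 37 °C, 5% CO2, with 0.1% DMSO vehicle and a 5 µM positive control. Relative viability came from ATPLite as percent growth, averaged over up to triplicate wells, and was rescaled with 1 as full and 0 as none.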

[2] = system: HS729; test: as above
Procedure, shortened: as §1

[3] = system: KHOS-NP; test: as above
Procedure, shortened: as §1

[4] = system: SW684; test: as above
Procedure, shortened: as §1

[5] = system: SW872; test: as above
Procedure, shortened: as §1

[6] = system: A204; test: standardised AUC of viability dose-response curve (72 h) (fraction (0-1)); higher = less growth inhibition (more resistant)
Procedure, shortened: (§2)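 Viability of sarcoma cell lines was read with ATPLite after 72 h of triplicate treatment in 384-well plates with 2.5 µl of compound from a compound-plate series of 10 mM to 0.0002 mM. Viability was scaled 1 (full) to 0 (none) and fitted with a four-parameter log-logistic model for each drug and cell line. The reported standardised area under the dose-response curve in log-dose space comes from a modified drexplorer computeAUC, where 1 is no response and 0 is full response.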

[7] = system: G401; test: as above
Procedure, shortened: as §2

[8] = system: HS729; test: as above
Procedure, shortened: as §2

[9] = system: HT1080; test: as above
Procedure, shortened: as §2

[10] = system: KHOS-240S; test: as above
Procedure, shortened: as §2

[11] = system: KHOS-NP; test: as above
Procedure, shortened: as §2

[12] = system: MES-SA; test: as above
Procedure, shortened: as §2

[13] = system: RD-ES; test: as above
Procedure, shortened: as §2

[14] = system: RD; test: as above
Procedure, shortened: as §2

[15] = system: SK-ES-1; test: as above
Procedure, shortened: as §2

[16] = system: SK-LMS-1; test: as above
Procedure, shortened: as §2

[17] = system: SW1353; test: as above
Procedure, shortened: as §2

[18] = system: SW684; test: as above
Procedure, shortened: as §2

[19] = system: SW872; test: as above
Procedure, shortened: as §2

[20] = system: SW982; test: as above
Procedure, shortened: as §2

[21] = system: SYO-1; test: as above
Procedure, shortened: as §2

[22] = system: VA-ES-BJ; test: as above
Procedure, shortened: as §2

In the case of COc1cc2ncnc(Nc3cccc(Cl)c3F)c2cc1OC(=O)N1CCN(C)C[C@H]1C [AZD-3759], the relative viability ([1]; 0.00017 µM) is reported as 1.051 ± 0.0099, the relative viability ([1]; 0.00051 µM) is reported as 1.1 ± 0.013 and the relative viability ([1]; 0.00152 µM) is reported as 1.09 ± 0.043. For the same molecule, the relative viability ([1]; 0.00457 µM) was 1.08 ± 0.025, the relative viability ([1]; 0.01372 µM) was 1.05 ± 0.072 and the relative viability ([1]; 0.04115 µM) was 1.08 ± 0.046. For the same molecule, the relative viability ([1]; 0.1235 µM) was 1.04 ± 0.044, the relative viability ([1]; 0.3704 µM) was 1.04 ± 0.017 and the relative viability ([1]; 1.111 µM) was 1.03 ± 0.055. For the same molecule, the relative viability ([1]; 3.333 µM) was 0.954 ± 0.046, the relative viability ([1]; 10 µM) was 0.883 ± 0.032 and the relative viability ([2]; 0.00017 µM) was 1.05 ± 0.057. It also gave a relative viability ([2]; 0.00051 µM) of 0.958 ± 0.03, a relative viability ([2]; 0.00152 µM) of 0.934 ± 0.024 and a relative viability ([2]; 0.00457 µM) of 0.971 ± 0.075. It also gave a relative viability ([2]; 0.01372 µM) of 0.966 ± 0.11, a relative viability ([2]; 0.04115 µM) of 0.875 ± 0.053 and a relative viability ([2]; 0.1235 µM) of 0.94 ± 0.087. For the same molecule, the relative viability ([2]; 0.3704 µM) was 0.878 ± 0.056, the relative viability ([2]; 1.111 µM) was 0.856 ± 0.034 and the relative viability ([2]; 3.333 µM) was 0.812 ± 0.028. It also gave a relative viability ([2]; 10 µM) of 0.781 ± 0.044, a relative viability ([3]; 0.00017 µM) of 1.1 ± 0.033 and a relative viability ([3]; 0.00051 µM) of 1.11 ± 0.019. For the same molecule, the relative viability ([3]; 0.00152 µM) was 1.105 ± 0.006, the relative viability ([3]; 0.00457 µM) was 1.1 ± 0.019 and the relative viability ([3]; 0.01372 µM) was 1.109 ± 0.011. The relative viability ([3]; 0.04115 µM) was 1.07 ± 0.019, the relative viability ([3]; 0.1235 µM) was 1.09 ± 0.018 and the relative viability ([3]; 0.3704 µM) was 1.04 ± 0.028. It also gave a relative viability ([3]; 1.111 µM) of 1.07 ± 0.031, a relative viability ([3]; 3.333 µM) of 0.998 ± 0.017 and a relative viability ([3]; 10 µM) of 1.02 ± 0.036. For the same molecule, the relative viability ([4]; 0.00017 µM) was 1.14 ± 0.061, the relative viability ([4]; 0.00051 µM) was 1.16 ± 0.043 and the relative viability ([4]; 0.00152 µM) was 1.16 ± 0.025. It also gave a relative viability ([4]; 0.00457 µM) of 1.13 ± 0.035, a relative viability ([4]; 0.01372 µM) of 1.15 ± 0.016 and a relative viability ([4]; 0.04115 µM) of 1.12 ± 0.045. The relative viability ([4]; 0.1235 µM) was 1.11 ± 0.031, the relative viability ([4]; 0.3704 µM) was 1.14 ± 0.022 and the relative viability ([4]; 1.111 µM) was 1.16 ± 0.017. The relative viability ([4]; 3.333 µM) was 1.1 ± 0.05, the relative viability ([4]; 10 µM) was 1.05 ± 0.053 and the relative viability ([5]; 0.00017 µM) was 1.07 ± 0.019. For the same molecule, the relative viability ([5]; 0.00051 µM) was 1.1 ± 0.046, the relative viability ([5]; 0.00152 µM) was 1.06 ± 0.03 and the relative viability ([5]; 0.00457 µM) was 1.058 ± 0.0043. It also gave a relative viability ([5]; 0.01372 µM) of 1.032 ± 0.0065, a relative viability ([5]; 0.04115 µM) of 1.05 ± 0.01 and a relative viability ([5]; 0.1235 µM) of 1.04 ± 0.025. It also gave a relative viability ([5]; 0.3704 µM) of 1.02 ± 0.04, a relative viability ([5]; 1.111 µM) of 1.04 ± 0.02 and a relative viability ([5]; 3.333 µM) of 0.9635 ± 0.0039. For the same molecule, the relative viability ([5]; 10 µM) was 0.828 ± 0.048, the “standardised AUC” value [6] was 0.958 and the “standardised AUC” value [7] was 0.972. For the same molecule, the “standardised AUC” value [8] was 0.906, the “standardised AUC” value [9] was 0.975 and the “standardised AUC” value [10] was 0.967. For the same molecule, the “standardised AUC” value [11] was 0.969, the “standardised AUC” value [12] was 0.974 and the “standardised AUC” value [13] was 0.992. For the same molecule, the “standardised AUC” value [14] was 0.991, the “standardised AUC” value [15] was 0.972 and the “standardised AUC” value [16] was 0.964. For the same molecule, the “standardised AUC” value [17] was 0.922, the “standardised AUC” value [18] was 0.978 and the “standardised AUC” value [19] was 0.967. For the same molecule, the “standardised AUC” value [20] was 0.977, the “standardised AUC” value [21] was 0.91 and the “standardised AUC” value [22] was 0.955.
